Publication PMC10185516, “Synthesis, in vitro inhibitor screening, structure–activity relationship, and molecular dynamic simulation studies of novel thioquinoline derivatives as potent α-glucosidase inhibitors” (Scientific Reports, 2023)
Where two headings read alike, the source gives them in different places.

Assays:
[1] = molecular target: T1, α-glucosidase enzyme (EC3.2.1.20) (Saccharomyces cerevisiae, UniProt P38158); assay: biochemical; assay type: biochemical
T1 construct: purchased Sigma-Aldrich
T1 sequence (P38158 whole entry): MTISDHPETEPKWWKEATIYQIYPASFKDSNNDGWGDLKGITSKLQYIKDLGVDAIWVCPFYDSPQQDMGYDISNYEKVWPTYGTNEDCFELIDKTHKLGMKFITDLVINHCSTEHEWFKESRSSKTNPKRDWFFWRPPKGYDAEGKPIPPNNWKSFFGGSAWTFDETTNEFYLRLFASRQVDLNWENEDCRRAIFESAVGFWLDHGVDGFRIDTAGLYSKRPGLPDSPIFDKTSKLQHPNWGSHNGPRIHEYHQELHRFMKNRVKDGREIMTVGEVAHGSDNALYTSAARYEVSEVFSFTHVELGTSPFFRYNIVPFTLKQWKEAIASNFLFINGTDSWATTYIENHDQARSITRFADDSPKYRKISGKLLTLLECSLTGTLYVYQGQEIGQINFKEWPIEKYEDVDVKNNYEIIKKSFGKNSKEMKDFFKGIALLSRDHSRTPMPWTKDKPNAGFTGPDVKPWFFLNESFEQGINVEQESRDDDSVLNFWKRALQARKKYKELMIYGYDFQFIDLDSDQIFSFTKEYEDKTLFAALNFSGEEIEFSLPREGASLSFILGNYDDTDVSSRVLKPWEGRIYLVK
Description: α-glucosidase enzyme (EC3.2.1.20, Saccharomyces cerevisiae, 20 U/mg) and substrate (p-nitrophenyl glucopyranoside) were purchased from Sigma-Aldrich. α-glucosidase was dissolved in potassium phosphate buffer (50 mM, pH = 6.8) to obtain the initial activity of 1 U/ml. Then, 20 µl of this enzyme solution was added to 135 µl of potassium phosphate buffer and 20 µl of test compound at various concentrations in DMSO. After 10 min incubation at 37 °C, 25 µl of the substrate at a final concentration of 4 mM was added to the mixture and allowed to incubate at 37 °C for 20 min. Then, the change in absorbance was measured at 405 nm spectroscopically. […] The percentage of inhibition for each entry was calculated by using the following formula: \%Inhibition=Abs control-Abs sample/Abs control×100 IC50 values were obtained from the nonlinear regression curve using the Logit method[15],[29].

α-glucosidase [2] = details: cited from earlier work
α-glucosidase [3] = molecular target: T2, α-glucosidase (Saccharomyces cerevisiae, UniProt P38158); assay: Enzyme kinetic studies (Lineweaver–Burk plot, secondary plot); assay type: biochemical
T2 construct: purchased Sigma-Aldrich
T2 sequence (P38158 whole entry): as above
Description: A Lineweaver–Burk plot was generated to identify the type of inhibition and the Michaelis–Menten constant (Km) value was determined from the plot between the reciprocal of the substrate concentration (1/[S]) and reciprocal of enzyme rate (1/V) over various inhibitor concentrations.

[4] = set-up: method as in PMID 29980114; details: at the tested concentrations; cited from earlier work
[5] = previously reported aryl-hydrazide inhibitors, Fig. 1, read-out: IC50
[6] = previously reported inhibitors, Fig. 1, recent research

SMILES	melting point	IC50 [1]	further results
O=C(CSc1nc2ccccc2cc1C=NNC(=O)c1ccccc1)Nc1cccc(Cl)c1 [Compound 9d, 2-((3-((2-Benzoylhydrazineylidene)methyl)quinolin-2-yl)thio)-N-(3-chlorophenyl)acetamide]	255 to 257 °C	193.8 ± 1 µM	
CCc1ccc(NC(=O)CSc2nc3ccccc3cc2C=NNC(=O)c2ccccc2)cc1 [Compound 9k, 2-((3-((2-Benzoylhydrazineylidene)methyl)quinolin-2-yl)thio)-N-(4-ethylphenyl)acetamide]	255 to 257 °C	60.4 ± 0.2 µM	
Cc1ccccc1NC(=O)CSc1nc2ccccc2cc1C=NNC(=O)c1ccccc1 [Compound 9h, 2-((3-((2-Benzoylhydrazineylidene)methyl)quinolin-2-yl)thio)-N-(o-tolyl)acetamide]	260 to 263 °C	141.8 ± 0.6 µM	
O=C(CSc1nc2ccccc2cc1C=NNC(=O)c1ccccc1)Nc1ccc(F)cc1 [Compound 9c, 2-((3-((2-Benzoylhydrazineylidene)methyl)quinolin-2-yl)thio)-N-(4-fluorophenyl)acetamide]	271 to 273 °C	46 ± 0.5 µM	
O=C(N/N=C/c1ccc(Cl)cc1)c1ccc(-c2nc3ccccc3s2)cc1 [E]			IC50 (α-glucosidase [2]; [5]): 83.8 ± 0.89 µM
O=C(CSc1nc2ccccc2cc1C=NNC(=O)c1ccccc1)Nc1ccccc1 [Compound 9a, 2-((3-((2-Benzoylhydrazineylidene)methyl)quinolin-2-yl)thio)-N-phenylacetamide]	245 to 247 °C	88.5 ± 1.3 µM	improvement in inhibitory potency compared to the positive control ([1]; versus acarbose): approximately nine-fold
O=C(N/N=C/c1cccc(F)c1)c1ccc2nc(-c3ccccc3)c(-c3ccccc3)nc2c1 [F]			IC50 (α-glucosidase [2]; [5]): 111 ± 6 µM
Cc1cccc(NC(=O)CSc2nc3ccccc3cc2C=NNC(=O)c2ccccc2)c1C [Compound 9l, 2-((3-((2-Benzoylhydrazineylidene)methyl)quinolin-2-yl)thio)-N-(2,3-dimethylphenyl)acetamide]	241 to 243 °C	37.99 ± 0.2 µM	
O=C(CSc1nc2ccccc2cc1C=NNC(=O)c1ccccc1)Nc1ccc(Br)cc1 [Compound 9f, 2-((3-((2-Benzoylhydrazineylidene)methyl)quinolin-2-yl)thio)-N-(4-bromophenyl)acetamide]	254 to 257 °C	352.4 ± 1.1 µM	
O=C(CSc1nc2ccccc2cc1C=NNC(=O)c1ccccc1)Nc1ccc(Cl)cc1 [Compound 9e, 2-((3-((2-Benzoylhydrazineylidene)methyl)quinolin-2-yl)thio)-N-(4-chlorophenyl)acetamide]	262 to 264 °C	234.9 ± 0.9 µM	
COc1ccc(NC(=O)CSc2nc3ccccc3cc2C=NNC(=O)c2ccccc2)cc1 [Compound 9j, 2-((3-((2-Benzoylhydrazineylidene)methyl)quinolin-2-yl)thio)-N-(4-methoxyphenyl)acetamide]	241 to 243 °C	24.7 ± 0.3 µM	
O=C(CSc1nc2ccccc2cc1C=NNC(=O)c1ccccc1)Nc1ccccc1F [Compound 9b, 2-((3-((2-Benzoylhydrazineylidene)methyl)quinolin-2-yl)thio)-N-(2-fluorophenyl)acetamide]	268 to 270 °C	109.4 ± 0.2 µM	
O=C(CSc1nc2ccccc2cc1C=NNC(=O)c1ccccc1)Nc1ccc([N+](=O)[O-])cc1 [Compound 9g, 2-((3-((2-benzoylhydrazineylidene)methyl)quinolin-2-yl)thio)-N-(4-nitrophenyl)acetamide]	241 to 243 °C	93.7 ± 1.5 µM	
O=C(CSc1nc2ccccc2cc1-c1nc2ccccc2[nH]1)Nc1cccc(Cl)c1 [C]			IC50 (α-glucosidase [2]; previously reported inhibitor, Fig. 1, read-out: IC50): 3.2 ± 0.3 µM
O=C(CSc1nc2ccccc2cc1C=NNC(=O)c1ccccc1)NCc1ccccc1 [Compound 9o, 2-((3-((2-Benzoylhydrazineylidene)methyl)quinolin-2-yl)thio)-N-benzylacetamide]	241 to 243 °C	373.8 ± 0.8 µM	
Cc1ccc(NC(=O)CSc2nc3ccccc3cc2C=NNC(=O)c2ccccc2)cc1 [Compound 9i, 2-((3-((2-Benzoylhydrazineylidene)methyl)quinolin-2-yl)thio)-N-(p-tolyl)acetamide]	254 to 256 °C	305 ± 1.1 µM	
O=C(CSc1nc2ccccc2cc1C=NNC(=O)c1ccccc1)Nc1ccc2ccccc2c1 [Compound 9n, 2-((3-((2-Benzoylhydrazineylidene)methyl)quinolin-2-yl)thio)-N-(naphthalen-2-yl)acetamide]	263 to 265 °C	18.4 ± 0.4 µM	
O=C(O)c1ccc2ccccc2n1 [A]			IC50 (α-glucosidase [2]; [6]): 9.1 ± 2.3 µg/mL
O=C(CSc1nc2ccccc2cc1C=NNC(=O)c1ccccc1)NCc1ccc(F)cc1 [Compound 9p, 2-((3-((2-Benzoylhydrazineylidene)methyl)quinolin-2-yl)thio)-N-(4-fluorobenzyl)acetamide]	269 to 271 °C	78 ± 2.4 µM	
O=C(O)c1cnc2ccccc2c1 [B]			IC50 (α-glucosidase [2]; [6]): 10.6 ± 1.4 µg/mL
Cc1cccc(C)c1NC(=O)CSc1nc2ccccc2cc1/C=N/NC(=O)c1ccccc1 [Compound 9m, 2-((3-((2-Benzoylhydrazineylidene)methyl)quinolin-2-yl)thio)N(2,6dimethylphenyl)acetamide]			mode of inhibition (α-glucosidase [3]; Lineweaver–Burk plot, Km increased, Vmax unchanged): competitive; Ki (α-glucosidase [3]; from plot of Km versus inhibitor concentration, read-out: Ki (inhibition constant)): 18 µM; IC50 ([1]; α-glucosidase inhibition, mean ± SD, read-out: IC50): 14 ± 0.6 µM
COc1ccc2nc3cc(Cl)ccc3c(SCC(=O)Nc3ccc(C)cc3)c2c1 [D]			toxicity [4]: no toxicity; IC50 (α-glucosidase [2]; previously reported inhibitor and its positive control, read-out: IC50): 80 ± 2 µM
